Earlier results, collected in patent US8097259B2, “Method for prevention and treatment of Alzheimer's disease” (SunWay Biotech Co., Ltd., priority 2007, dated 2012).

System: Alzheimer's disease
Conditions: Wolozin et al. 2000

SMILES: CC[C@H](C)C(=O)O[C@H]1C[C@@H](C)C=C2C=C[C@H](C)[C@H](CC[C@@H]3C[C@@H](O)CC(=O)O3)[C@H]21 [lovastatin]
- results for AD treatment among statins: best results
